A word on the pKi: it is the Ki on a negative log10 scale, so that one unit is a factor of ten. As usually defined, the solubility is how much of the substance goes into solution per volume. The low end stands for little dissolved substance, the high end for much dissolved substance.

pKi: −log10 of the molar value. Converted amounts (≈) assume the structure as drawn. Like-named read-outs stand apart in the source and are kept apart here. Some results are limits rather than exact numbers.

The source of these data is patent US20070142386A1, “New 2-substituted, 4-amino-thiazolo[4,5-d] pyrimidines, useful as chemokine receptor antagonists, esp. cx3cr1” (AstraZeneca, priority 2003, published 2007).

The target in data set [1] is T1, human fractalkine receptor (hCX3CR1) (Homo sapiens, UniProt P49238).
T1 construct: expressed in transfected cells; host or cells: HEKS 293 (human embryonic kidney suspension) cells stably expressing the chimeric G-protein Gαqi5; Membranes were used in the assay
T1 sequence (P49238 1-355): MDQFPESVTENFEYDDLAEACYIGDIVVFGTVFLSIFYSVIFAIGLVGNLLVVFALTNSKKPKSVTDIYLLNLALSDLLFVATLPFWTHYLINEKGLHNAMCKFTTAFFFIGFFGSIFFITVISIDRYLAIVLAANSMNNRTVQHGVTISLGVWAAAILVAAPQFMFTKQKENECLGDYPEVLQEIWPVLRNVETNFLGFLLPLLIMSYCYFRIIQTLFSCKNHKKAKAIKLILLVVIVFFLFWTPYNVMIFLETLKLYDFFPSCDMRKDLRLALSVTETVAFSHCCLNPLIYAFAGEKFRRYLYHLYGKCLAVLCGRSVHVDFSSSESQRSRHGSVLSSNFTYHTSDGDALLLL
The experiment in a line: Ligand binding assay (competition binding with [125I]-fractalkine on cell membranes).
Experimental: Recombinant human fractalkine (hCX3CL1) was purchased from PeproTech Inc., UK. […] Fluo4-AM was purchased from Molecular Probes, US. All other chemicals were of analytical grade.
A stable clone was generated utilizing zeocin (500 μg/ml) and hygromycin (100 μg/ml) selection. For further applications the cells were maintained in Dulbecco's modified Eagle's medium/Ham's nutrient mix F12 (DMEMF12) containing pyridoxine and supplemented with 10% (v/v) fetal bovine serum, 2 mM L-glutamine, 100 U/ml penicillin and 100 mg/ml streptomycin, 250 μg/ml zeocin and 100 μg/ml hygromycin.
For the competition binding assay cells were harvested in buffer containing 10 mM Tris-HCl, pH 7.4, 5 mM ethylenediaminetetra-aceticacid (EDTA) and 0.1 mg/ml bacitracin (a protease inhibitor) and centrifuged at 300×g for 10 min. Cell pellets were then resuspended in harvesting buffer, pooled and homogenised using Dounce homogeniser. Cell membranes were centrifuged at 48000×g for 10 min and then resuspended in harvesting buffer using Ultra-Turrax T8 (IKA Labortechnik, Germany). […] Membrane aliquotes were stored at −70° C. […] MeltiLex solid scintillator (PerkinElmer LifeSciences,US) were melted onto filters and radioactivity was measured in a Wallac1205 Betaplate counter (PerkinElmer LifeScience, US).

Data set [2] in a line: Solubility assay (0.1M phosphate buffer, pH 7.4, 24 hours). In kind it is physicochemical. As to conditions: 100 μM from DMSO stock in 0.1M phosphate buffer, pH 7.4, room temperature, upper limit 100 μM, LOQ 0.1 μM. As to the method:
100 μM Solutions in duplicate, prepared by dilution from a 10 mM DMSO stock solution of the test compound, were incubated in 0.1M phosphate buffer, pH 7.4, in a 96-well plate (PP plate, 350 μl U-shaped wells, COSTAR) on a plate bed shaker (IKA®-Schuttler MTS-4, IKA Labortechnik) at 300 rpm and room temperature (20-22° C.) for 24 hours.
The solutions were transferred to a MultiScreen™-R4 96-well filtration plate (LCR membrane, 0.4 μm hydrophilic PTFE, non-sterile glass-filled PP plate, 350 μl wells, Millipore) and filtered under vacuum to a 96-well collection plate (PP plate, 350 μl U-shaped wells, COSTAR), called the analyte plate, using Millipore Vacuum Manifold equipment. The analyte plate was covered by heat-sealing with an aluminium foil coated with a PP seal layer (AB-0813, pierceable sealing foil strong, ABgene).
LC-UV-MS analysis was performed using a generic LC method.
Single point quantification was performed against two 100 μM standards of the test compound dissolved in DMSO at the wavelength showing maximum UV absorbance as extracted from the DAD-trace (210-400 nm). The upper limit of the screen method is 100 μM with a LOQ of 0.1 μM.

The mark [3] stands for this setting: 21 °C, aqueous buffer, kinetic from dmso stock.

As for `CC(C)C[C@H](CO)Nc1nc([S+]([O-])Cc2cccc(F)c2F)nc2[nH]c(=O)sc12` (mixture of isomers) [Example 45, 5-[(2,3-Difluorobenzyl)-(RS,SS)-sulfinyl]-7-{[(1R)-1-(hydroxymethyl)-3-methylbutyl]amino}[1,3]thiazolo[4,5-d]pyrimidin-2(3H)-one], the pKi in data set [1] (10 pM [125I]-fractalkine, membranes of HEKS 293 cells expressing hCX3CR1, 25° C., 24 h, read-out: Ki) was 7.42. For the same compound, the solubility at 24 h in data set [2] (setting [3]) was greater than 100 µM. For the compound `CC(C)C[C@H](CO)N(C)c1nc([S+]([O-])CCc2ccccc2Br)nc2nc(N)sc12` (mixture of isomers) [Example 13, (R)-2-[(2-Amino-5-{[2-(2-bromophenyl)ethyl]-(RS,SS)-sulfinyl}[1,3]thiazolo[4,5-d]pyrimidin-7-yl)(methyl)amino]-4-methylpentan-1-ol], the solubility at 24 h in data set [2] is listed as 33.8 µM (≈ 17.3 µg/mL). For the compound `COc1cccc(COc2nc(N[C@@H](CO)CC(C)C)c3sc(N)nc3n2)c1` [Example 2, (2R)-2-({2-Amino-5-[(3-methoxybenzyl)oxy][1,3]thiazolo[4,5-d]pyrimidin-7-yl}amino)-4-methylpentan-1-ol], in data set [2] (setting [3]), the solubility at 24 h was determined as 72.9 µM (≈ 29.4 µg/mL).

As for `CC(C)C[C@H](CO)Nc1nc(OCCc2ccccc2)nc2nc(N)sc12` [Example 3, (2R)-2-{[2-Amino-5-(2-phenylethoxy)[1,3]thiazolo[4,5-d]pyrimidin-7-yl]amino}-4-methylpentan-1-ol], the solubility at 24 h in data set [2] (setting [3]) worked out at 63.6 µM (≈ 24.6 µg/mL). On to `CC(C)CC(CO)Nc1nc([S+]([O-])Cc2cccc(F)c2F)nc2[nH]c(=O)cnc12` [Example 24, 2-[(2,3-Difluorobenzyl)-(RS,SS)-sulfinyl]-4-(1R)-1-(hydroxymethyl)-3-methylbutyl]amino}pteridin-7(8H)-one], for which the solubility at 24 h in data set [2] (setting [3]) was 44 µM (≈ 19.2 µg/mL). `CC(C)C[C@H](CO)Nc1nc(OCc2ccccc2)[nH]c2nc(=O)sc1-2` [Example 25, 5-(Benzyloxy)-7-{[(1R)-1-(hydroxymethyl)-3-methylbutyl]amino}[1,3]thiazolo[4,5-d]pyrimidin-2(3H)-one] had a pKi in data set [1] of 7.35. This compound returned a solubility at 24 h in data set [2] (setting [3]) of 29 µM (≈ 10.9 µg/mL). `COc1cccc(COc2nc(N[C@@H](CO)CC(C)C)c3sc(=O)[nH]c3n2)c1` [Example 26, 7-{[(1R)-1-(Hydroxymethyl)-3-methylbutyl]amino}-5-[(3-methoxybenzyl)oxy][1,3]thiazolo[4,5-d]pyrimidin-2(3H)-one] gave a solubility at 24 h in data set [2] (setting [3]) of 78.5 µM (≈ 31.8 µg/mL). As for `CC(C)C(CO)Nc1nc([S+]([O-])Cc2ccccc2)nc2[nH]c(=O)sc12` [Example 49, 5-[Benzyl-(RSSS)-sulfinyl]-7-{[(1R)-1-(hydroxymethyl)-2-methylpropyl]amino}[1,3]thiazolo[4,5-d]pyrimidin-2(3H)-one], in data set [2] (setting [3]), the solubility at 24 h was greater than 100 µM. In data set [2] (setting [3]), `CC(C)C[C@H](CO)Nc1nc(SCc2cccc(F)c2F)nc2[nH]c(=O)cnc12` [drawing 17 X = S, 2-[(2,3-Difluorobenzyl)thio]-4-{[(1R)-1-(hydroxymethyl)-3-methylbutyl]amino}pteridin-7(8H)-one, reference compound] displayed a solubility at 24 h of 1.3 µM (≈ 0.548 µg/mL). Take `CC(C)C[C@H](CO)Nc1nc(SCc2ccccc2)nc2[nH]c(=O)sc12` [drawing 18 X = S, 5-(Benzylthio)-7-{[(1R)-1-(hydroxymethyl)-3-methylbutyl]amino}[1,3]thiazolo[4,5-d]pyrimidin-2(3H)-one, reference compound]: in data set [2] (setting [3]), the solubility at 24 h came out at 1.3 µM (≈ 0.508 µg/mL). For the compound `CC(C)C[C@H](CO)Nc1nc(SCc2cccc(F)c2F)nc2[nH]c(=O)sc12` [drawing 20 X = S, 5-[(2,3-Difluorobenzyl)thio]-7-{[(1R)-1-(hydroxymethyl)-3-methylbutyl]amino}[1,3]thiazolo[4,5-d]pyrimidin-2(3H)-one, reference compound], the solubility at 24 h in data set [2] (setting [3]) turned out to be 2.1 µM (≈ 0.896 µg/mL). In data set [2] (setting [3]), `CC(C)[C@H](CO)Nc1nc(SCc2ccccc2)nc2[nH]c(=O)sc12` [drawing 21 X = S, 5-(Benzylthio)-7-{[(1R)-1-(hydroxymethyl)-2-methylpropyl]amino}[1,3]thiazolo[4,5-d]pyrimidin-2(3H)-one, reference compound] had a solubility at 24 h of 8.5 µM (≈ 3.2 µg/mL).
